Each structure is given as a SMILES string.

In the test the target is T1, His6-PDK1 (aa 52-556) (Homo sapiens, UniProt O15530).
T1 construct: 15 μL His6-PDK1 (aa 52-556) 3.33 ng/well); host or cells: baculovirus-infected insect cells
T1 sequence (O15530 52-556): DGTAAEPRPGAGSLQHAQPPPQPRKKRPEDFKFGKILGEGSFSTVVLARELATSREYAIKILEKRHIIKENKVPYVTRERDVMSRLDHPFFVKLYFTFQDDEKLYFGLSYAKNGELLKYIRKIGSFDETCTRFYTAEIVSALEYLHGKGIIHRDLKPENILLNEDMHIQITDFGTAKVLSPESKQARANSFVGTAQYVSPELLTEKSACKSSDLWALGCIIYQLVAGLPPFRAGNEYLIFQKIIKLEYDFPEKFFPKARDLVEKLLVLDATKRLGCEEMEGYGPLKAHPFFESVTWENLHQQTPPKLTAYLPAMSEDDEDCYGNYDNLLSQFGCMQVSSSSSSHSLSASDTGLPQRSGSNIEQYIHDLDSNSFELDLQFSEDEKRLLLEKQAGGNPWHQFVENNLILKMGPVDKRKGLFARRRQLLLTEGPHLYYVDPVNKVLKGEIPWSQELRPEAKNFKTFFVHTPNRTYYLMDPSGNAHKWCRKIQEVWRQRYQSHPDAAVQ
Briefly: PDK1 kinase assay III (with Tween 20). In kind it is biochemical. The note with it: compound at 10 μM; PDK1 kinase assay III (values without asterisk); read-out: % CTL (residual activity of the enzyme relative to DMSO control). Summed up:
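Started with ATP, incubated 90 min at ambient temperature, then stopped with phosphoric acid. Asterisked values come from assay II (24 h or 5 min incubation).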
With `O=C1Nc2cc(/C=C/CNC(=O)c3ccnn(Cc4ccc(F)c(F)c4)c3=O)ccc2/C1=C/c1cnc[nH]1` [I-6, 2-(3,4-difluorobenzyl)-N-{(2E)-3-[(3Z)-3-(1H-imidazol-5-ylmethylidene)-2-oxo-2,3-dihydro-1H-indol-6-yl]prop-2-en-1-yl}-3-oxo-2,3-dihydropyridazine-4-carboxamide], the remaining activity at 10 µM is 17.5%. To `O=C1Nc2cc(/C=C/CNC(=O)C3CCCN(Cc4ccc(F)c(F)c4)C3=O)ccc2/C1=C/c1cnc[nH]1` (centres unmarked) [I-9, 1-(3,4-difluorobenzyl)-N-{(2E)-3-[(3Z)-3-(1H-imidazol-5-ylmethylidene)-2-oxo-2,3-dihydro-1H-indol-6-yl]prop-2-en-1-yl}-2-oxopiperidine-3-carboxamide] belongs 25.7%; to `O=C1Nc2cc(/C=C/CNC(=O)c3cccc(Nc4ccc(F)c(F)c4)n3)ccc2/C1=C/c1ccc[nH]1` [I-19, 6-[(3,4-difluorophenyl)amino]-N-{(2E)-3-[(3Z)-2-oxo-3-(1H-pyrrol-2-ylmethylidene)-2,3-dihydro-1H-indol-6-yl]prop-2-en-1-yl}pyridine-2-carboxamide], 36.9%; to `CC(/C=C/c1ccc2nc(Nc3ccc(CN(C)C)cc3)ncc2c1)NC(=O)c1cncn(Cc2ccc(F)c(F)c2)c1=O` (centres unmarked) [IV-32, 1-(3,4-difluorobenzyl)-N-{(3E)-4-[2-({4-[(dimethylamino)methyl]phenyl}amino)-quinazolin-6-yl]but-3-en-2-yl}-6-oxo-1,6-dihydropyrimidine-5-carboxamide], 19%. With `Cc1c(C(=O)NCC#Cc2ccc3nc(Nc4ccc(NC5CCN(C)CC5)c(F)c4)ncc3c2)c(=O)n(Cc2ccc(F)c(F)c2)n1C` [III-32, 2-(3,4-difluorobenzyl)-N-{3-[2-({3-fluoro-4-[(1-methylpiperidin-4-yl)amino]phenyl}amino)quinazolin-6-yl]prop-2-yn-1-yl}-1,5-dimethyl-3-oxo-2,3-dihydro-1H-pyrazole-4-carboxamide] the figure was 13.1%; with `Cc1c(C(=O)NCC#Cc2ccc3nc(Nc4ccc(C(=O)O)cc4)ncc3c2)c(=O)n(Cc2ccc(F)c(F)c2)n1C` [III-47], 13.3%. `CC1CCC(NC(=O)c2ccc(Nc3ncc4cc(C#CCNC(=O)c5cncn(Cc6ccc(F)c(F)c6)c5=O)ccc4n3)cc2)CC1` (centres unmarked): the remaining activity at 10 µM turned out to be 19.7%. To `Cc1c(C(=O)NC/C=C/c2ccc3nc(Nc4ccc(C(=O)N(C)C5CCN(C)CC5)c(Cl)c4)ncc3c2)c(=O)n(Cc2ccc(F)c(F)c2)n1C` belongs 15.8%.

With `CN1CCC(N(C)c2ccc(Nc3ncc4cc(C#CCNC(=O)c5cncn(Cc6ccc(F)c(F)c6)c5=O)ccc4n3)cc2)CC1` [III-30, 1-(3,4-difluorobenzyl)-N-{3-[2-({4-[methyl(1-methylpiperidin-4-yl)amino]phenyl}amino)quinazolin-6-yl]prop-2-yn-1-yl}-6-oxo-1,6-dihydropyrimidine-5-carboxamide], the remaining activity at 10 µM was found to be 11.4%.

On to `Cc1c[nH]c(/C=C2\C(=O)Nc3cc(/C=C/CNC(=O)c4c(C)n(C)n(Cc5ccc(F)c(F)c5)c4=O)ccc32)n1` [I-42, 2-(3,4-difluorobenzyl)-1,5-dimethyl-N-[(2E)-3-{(3Z)-3-[(4-methyl-1H-imidazol-2-yl)methylidene]-2-oxo-2,3-dihydro-1H-indol-6-yl}prop-2-en-1-yl]-3-oxo-2,3-dihydro-1H-pyrazole-4-carboxamide], for which the remaining activity at 10 µM is 15.7%. With `O=C(NCC#Cc1cc(OC2CCNCC2)c2nc(Nc3ccc(N4CCOCC4)cc3)ncc2c1)c1cncn(Cc2ccc(F)c(F)c2)c1=O` the figure was 9.4%.

With `Cc1c(C(=O)NCC#Cc2ccc3nc(Nc4ccccc4)ncc3c2)c(=O)n(Cc2ccc(F)c(F)c2)n1C` [III-15, 2-(3,4-difluorobenzyl)-1,5-dimethyl-3-oxo-N-{3-[2-(phenylamino)quinazolin-6-yl]prop-2-yn-1-yl}-2,3-dihydro-1H-pyrazole-4-carboxamide], the remaining activity at 10 µM is 19.1%. Turning to `Cc1c(C(=O)NCC#Cc2ccc3nc(Nc4ccc(C(=O)N(C)C5CCN(C)CC5)cc4)ncc3c2)c(=O)n(Cc2ccc(F)c(F)c2)n1C`, the remaining activity at 10 µM amounted to 12.4%. With `CCNc1ncc2cc(/C=C/CNC(=O)c3cncn(Cc4ccc(F)c(F)c4)c3=O)ccc2n1` the figure was 23.5%; with `CN1CCC(Nc2ccc(Nc3ncc4cc(C#CCNC(=O)c5cn(C)c(=O)n(Cc6ccc(F)c(F)c6)c5=O)ccc4n3)cc2F)CC1` [III-33, 3-(3,4-difluorobenzyl)-N-{3-[2-({3-fluoro-4-[(1-methylpiperidin-4-yl)amino]phenyl}amino)quinazolin-6-yl]prop-2-yn-1-yl}-1-methyl-2,4-dioxo-1,2,3,4-tetrahydropyrimidine-5-carboxamide], 22.8%; with `Cc1c(C(=O)NCC#Cc2ccc3nc(Nc4ccc(N(C)C5CCN(C)CC5)cc4)ncc3c2)c(=O)n(Cc2ccc(F)c(F)c2)n1C` [III-40, 2-(3,4-difluorobenzyl)-1,5-dimethyl-N-{3-[2-({4-[methyl(1-methylpiperidin-4-yl)amino]phenyl}amino)quinazolin-6-yl]prop-2-yn-1-yl}-3-oxo-2,3-dihydro-1H-pyrazole-4-carboxamide], 13.5%. `Cc1c(C(=O)NCC#Cc2ccc3nc(Nc4ccc(N(C)C5CCN(C)CC5)cc4)ncc3c2F)c(=O)n(Cc2ccc(F)c(F)c2)n1C` [III-27, 2-(3,4-difluorobenzyl)-N-{3-[5-fluoro-2-({4-[methyl(1-methylpiperidin-4-yl)amino]phenyl}amino)quinazolin-6-yl]prop-2-yn-1-yl}-1,5-dimethyl-3-oxo-2,3-dihydro-1H-pyrazole-4-carboxamide]: the remaining activity at 10 µM was 12.8%.

On to `O=C1Nc2cc(/C=C/CNC(=O)c3cncn(Cc4ccc(F)c(F)c4)c3=O)cc(F)c2/C1=C/c1cnc[nH]1` [I-46, 1-(3,4-difluorobenzyl)-N-{(2E)-3-[(3Z)-4-fluoro-3-(1H-imidazol-5-ylmethylidene)-2-oxo-2,3-dihydro-1H-indol-6-yl]prop-2-en-1-yl}-6-oxo-1,6-dihydropyrimidine-5-carboxamide], for which the remaining activity at 10 µM was found to be 15.6%. In the case of `CN(C)Cc1ccc(Nc2ncc3cc(C#CCNC(=O)c4cc(Cl)nn(Cc5ccc(F)c(F)c5)c4=O)ccc3n2)cc1` [III-37, 6-chloro-2(3,4-difluorobenzyl)-N-{3-[2-({4-[(dimethylamino)methyl]phenyl}-amino)quinazolin-6-yl]prop-2-yn-1-yl}-3-oxo-2,3-dihydropyridazine-4-carboxamide], the remaining activity at 10 µM was determined as 13.8%. To `Cc1c(C(=O)NC/C=C\c2ccc3c(-c4ccco4)n[nH]c3c2)c(=O)n(Cc2ccc(F)c(F)c2)n1C` [II-6, 2-(3,4-difluorobenzyl)-N-{(2Z)-3-[3-(furan-2-yl)-1H-indazol-6-yl]prop-2-en-1-yl}-1,5-dimethyl-3-oxo-2,3-dihydro-1H-pyrazole-4-carboxamide] belongs 21.4%; to `COc1cc(Nc2ncc3cc(/C=C/CNC(=O)c4c(C)n(C)n(Cc5ccc(F)c(F)c5)c4=O)ccc3n2)ccc1C(=O)NC1CCN(C)CC1`, 10.2%; to `O=C1Nc2cc(/C=C/CNC(=O)c3cncn(Cc4ccc(F)c(F)c4)c3=O)ccc2/C1=C/c1cnc[nH]1` [I-2, 1-(3,4-difluorobenzyl)-N-{(2E)-3-[(3Z)-3-(1H-imidazol-5-ylmethylidene)-2-oxo-2,3-dihydro-1H-indol-6-yl]prop-2-en-1-yl}-6-oxo-1,6-dihydropyrimidine-5-carboxamide], 12.2%. For `Nc1ncc2cc(C#CCNC(=O)c3cncn(Cc4ccc(F)c(F)c4)c3=O)ccc2n1` [III-42, N-[3-(2-aminoquinazolin-6-yl)prop-2-yn-1-yl]-1-(3,4-difluorobenzyl)-6-oxo-1,6-dihydropyrimidine-5-carboxamide], the remaining activity at 10 µM was determined as 14.7%.

Consider `Cc1c(C(=O)NCC#Cc2ccc3nc(Nc4ccc(CN(C)C)cc4)ncc3c2F)c(=O)n(Cc2ccc(F)c(F)c2)n1C` [III-25, 2-(3,4-difluorobenzyl)-N-{3-[2-({4-[(dimethylamino)methyl]phenyl}amino)-5-fluoroquinazolin-6-yl]prop-2-yn-1-yl}-1,5-dimethyl-3-oxo-2,3-dihydro-1H-pyrazole-4-carboxamide], for which the remaining activity at 10 µM was determined as 11.7%. With `Cc1c(C(=O)NC/C=C/c2ccc3nc(Nc4ccc(CN(C)C)cc4)ncc3c2F)c(=O)n(Cc2ccc(F)c(F)c2)n1C` [IV-34, 2-(3,4-difluorobenzyl)-N-{(2E)-3-[2-({4-[(dimethylamino)methyl]phenyl}amino)-5-fluoroquinazolin-6-yl]prop-2-en-1-yl}-1,5-dimethyl-3-oxo-2,3-dihydro-1H-pyrazole-4-carboxamide] the figure was 14.4%; with `Cc1c(C(=O)NC/C=C/c2ccc3ncncc3c2)c(=O)n(Cc2ccc(F)c(F)c2)n1C` [IV-57, 2-(3,4-difluorobenzyl)-1,5-dimethyl-3-oxo-N-[(2E)-3-(quinazolin-6-yl)prop-2-en-1-yl]-2,3-dihydro-1H-pyrazole-4-carboxamide], 35.5%.

Values taken from patent US20110313156A1 (BOEHRINGER INGELHEIM INTERNATIONAL GMBH, priority 2008, published 2011).
